Laboratory results taken from patent US12595253B2, “Benzamides of pyrazolylamino-pyrimidinyl derivatives, and compositions and methods thereof” (LYNK PHARMACEUTICALS CO. LTD., priority 2019, dated 2026).

What was measured:
FLT3D835Y = target: T1, FLT3D835Y (Homo sapiens, UniProt P36888, D835Y); test: FLT3D835Y microfluidic kinase assay; type: biochemical
T1 construct: purchased Carna Biosciences
T1 sequence (P36888 27-993 D835Y): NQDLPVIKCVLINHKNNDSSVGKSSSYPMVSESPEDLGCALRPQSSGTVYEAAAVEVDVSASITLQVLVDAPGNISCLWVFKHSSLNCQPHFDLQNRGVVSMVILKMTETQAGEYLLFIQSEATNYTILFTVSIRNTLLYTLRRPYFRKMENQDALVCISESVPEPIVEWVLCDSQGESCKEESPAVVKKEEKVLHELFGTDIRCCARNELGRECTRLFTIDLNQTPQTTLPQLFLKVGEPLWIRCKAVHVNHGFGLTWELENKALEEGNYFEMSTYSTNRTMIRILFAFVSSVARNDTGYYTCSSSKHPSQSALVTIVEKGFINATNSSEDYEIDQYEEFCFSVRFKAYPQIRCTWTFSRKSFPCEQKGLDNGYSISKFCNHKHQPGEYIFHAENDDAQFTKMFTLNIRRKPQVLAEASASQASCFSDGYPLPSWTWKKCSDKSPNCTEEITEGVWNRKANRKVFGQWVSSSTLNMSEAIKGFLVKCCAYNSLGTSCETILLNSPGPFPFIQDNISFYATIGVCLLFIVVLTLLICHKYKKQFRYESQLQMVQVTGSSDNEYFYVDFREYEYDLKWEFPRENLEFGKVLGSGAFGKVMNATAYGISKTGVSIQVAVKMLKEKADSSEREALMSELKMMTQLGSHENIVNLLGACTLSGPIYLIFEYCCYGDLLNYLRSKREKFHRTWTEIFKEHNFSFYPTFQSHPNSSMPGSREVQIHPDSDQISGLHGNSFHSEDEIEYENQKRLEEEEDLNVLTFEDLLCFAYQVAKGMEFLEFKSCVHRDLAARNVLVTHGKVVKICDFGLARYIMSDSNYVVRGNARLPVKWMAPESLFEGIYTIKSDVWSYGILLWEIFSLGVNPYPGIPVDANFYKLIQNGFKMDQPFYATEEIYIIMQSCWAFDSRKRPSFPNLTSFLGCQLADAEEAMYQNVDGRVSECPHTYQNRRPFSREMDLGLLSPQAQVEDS
Protocol: Compounds were tested against FLT3, FLT3ITD and FLT3D835Y.
Assay Formats: FLT3 activity was determined in the reaction buffer 50 mM HEPES, 10 mM MgCl2 and 2 mM DTT by a microfluidic assay. The phosphorylation of a FAM labeled peptide substrate was monitored in the Caliper EZ Reader II (Perkin Elmer). The assay condition for each batch of enzyme (Carna Biosciences) was optimized to obtain 10% conversion rate of peptide substrate.
The test compounds were dissolved in DMSO to a stock concentration of 10 mM. 3-fold serially diluted compounds with top concentration of 5 μM were pre-incubated with FLT3, FLT3ITD or FLT3D835Y for 10 min at ambient temperature. The final DMSO concentration of assay mixture was 1%. […] The reaction was stopped by adding 50 mM EITA. The reaction time for FLT3, FLT3ITD and FLT3D8335Y was 30 min, 40 min and 40 min, respectively.
And the well without compound but with equivalent DMSO was defined as no inhibition. The percent inhibition was calculated by the following formula. % Inhibition=(Conversionmax−Conversionsample)/(Conversionmax−Conversionmin)*100 • Conversionmax means the conversion rate in the positive well without addition of compound • Conversionmin means the conversion rate in the well without addition of enzyme • Conversionsample means the conversion rate of test compounds
The dose-response (percent inhibition) curve was plotted and IC50 values were determined by GraphPad software.

CYP3A4 = target: T2, CYP3A4 (Homo sapiens, UniProt P08684); test: CYPs inhibition in pooled human liver microsomes, probe substrate Midazolam; type: in vitro ADME
T2 construct: 0.2 mg/mL human liver microsomes was pre-incubated in 180 μL reaction mixture; from tissue; host or cells: pooled human liver microsomes
How it was run: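 Test articles pre-incubated 10 min at 37 °C with a probe-substrate cocktail in pooled human liver microsomes. Reaction then started with NADPH and run 10 min. Metabolites quantified by LC-MS/MS; IC50 from 3-parameter logistic fit of % control activity.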

[1] = Liver microsomes study, Phase I stability (RLM); type: in vitro ADME, rat; details: pH 7.4; rat liver microsomes 0.5 mg/mL, 1 μM test article; read-out: RLM Clint
How it was run: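 Phase I turnover was followed by LC/MS/MS of parent compound remaining at 0, 10, 30 and 90 min in NADPH-fortified rat or human microsomes, with cold acetonitrile quench. Half-life and intrinsic clearance were derived from the log-linear depletion slope and the inverse protein concentration.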

T2 sequence (P08684 whole entry): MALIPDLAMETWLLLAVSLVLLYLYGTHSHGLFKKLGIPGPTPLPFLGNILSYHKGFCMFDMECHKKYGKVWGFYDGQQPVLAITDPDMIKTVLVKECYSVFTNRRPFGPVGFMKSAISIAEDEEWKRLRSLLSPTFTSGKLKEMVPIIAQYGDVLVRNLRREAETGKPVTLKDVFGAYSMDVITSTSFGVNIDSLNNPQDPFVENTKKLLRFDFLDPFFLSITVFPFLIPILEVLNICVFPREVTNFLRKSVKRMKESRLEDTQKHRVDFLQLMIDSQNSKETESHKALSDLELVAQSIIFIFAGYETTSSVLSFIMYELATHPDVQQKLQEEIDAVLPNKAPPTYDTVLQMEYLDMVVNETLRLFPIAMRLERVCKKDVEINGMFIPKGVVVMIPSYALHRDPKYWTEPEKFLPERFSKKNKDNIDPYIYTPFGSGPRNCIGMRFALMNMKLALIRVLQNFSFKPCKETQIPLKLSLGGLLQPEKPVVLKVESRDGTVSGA

IC50 (FLT3D835Y) [µM] | IC50 (CYP3A4) [µM] | microsomal CLint at 1 μM [1] [µL/min/mg] | Compound
4.32 |  |  | CCNC(=O)c1ccc(-c2nc(Nc3cnn(C)c3)ncc2C)cc1 [Example 222, N-ethyl-4-(5-methyl-2-((1-methyl-1H-pyrazol-4-yl)amino)pyrimidin-4-yl)benzamide]
 | > 50 | 101 | C[C@@H](C#N)NC(=O)c1ccc(-c2nc(Nc3cnn(C4CCN(C)CC4)c3)ncc2Cl)cc1 [Example 43, (S)-4-(5-Chloro-2-((1-(1-methylpiperidin-4-yl)-1H-pyrazol-4-yl)amino)pyrimidin-4-yl)-N-(1-cyanoethyl)benzamide]
 | > 50 |  | Cc1cnc(Nc2cnn(C3CCN(C(=O)CO)CC3)c2)nc1-c1ccc(C(=O)N[C@@H](C)C#N)cc1 [Example 119, (S)—N-(1-cyanoethyl)-4-(2-((1-(1-(2-hydroxyacetyl)piperidin-4-yl)-1H-pyrazol-4-yl)amino)-5-methylpyrimidin-4-yl)benzamide]
2.83 |  |  | Cc1cnc(Nc2cnn(C)c2)nc1-c1ccc(C(=O)NC(C)C)cc1 [Example 223, N-isopropyl-4-(5-methyl-2-((1-methyl-1H-pyrazol-4-yl)amino)pyrimidin-4-yl)benzamide]
 | > 50 | 16.4 | Cc1cnc(Nc2cnn(CC#N)c2)nc1-c1ccc(C(=O)NCC#N)cc1 [Example 4, N-(Cyanomethyl)-4-(2-((1-(cyanomethyl)-1H-pyrazol-4-yl)amino)-5-methylpyrimidin-4-yl)benzamide]
0.0155 |  | 31.6 | Cn1cc(Nc2ncc(Cl)c(-c3ccc(C(=O)NCC#N)cc3)n2)cn1 [Example 34, 4-(5-Chloro-2-((1-methyl-1H-pyrazol-4-yl)amino)pyrimidin-4-yl)-N-(cyanomethyl)benzamide]
0.0438 |  | 28.4 | C[C@@H](C#N)NC(=O)c1ccc(-c2nc(Nc3cnn(C)c3)ncc2Cl)cc1 [Example 125, (S)-4-(5-chloro-2-((1-methyl-1H-pyrazol-4-yl)amino)pyrimidin-4-yl)-N-(1-cyanoethyl)benzamide]
 | 19.6 | 73.9 | Cc1cnc(Nc2cnn(C3CC(C)(C)OC(C)(C)C3)c2)nc1-c1ccc(C(=O)NCC#N)cc1 [Example 113, N-(cyanomethyl)-4-(5-methyl-2-((1-(2,2,6,6-tetramethyltetrahydro-2H-pyran-4-yl)-1H-pyrazol-4-yl)amino)pyrimidin-4-yl)benzamide]
0.0119 |  |  | C[C@@H](C#N)NC(=O)c1ccc(-c2nc(Nc3cnn(C4CC4)c3)ncc2Cl)cc1 [Example 111, (S)-4-(5-Chloro-2-((1-cyclopropyl-1H-pyrazol-4-yl)amino)pyrimidin-4-yl)-N-(1-cyanoethyl)benzamide]
 | 41.5 | 26 | C[C@@H](C#N)NC(=O)c1ccc(-c2nc(Nc3cnn(C4CCNCC4)c3)ncc2Cl)cc1 [Example 165, (S)-4-(5-chloro-2-((1-(piperidin-4-yl)-1H-pyrazol-4-yl)amino)pyrimidin-4-yl)-N-(1-cyanoethyl)benzamide]
 | > 50 | 78.5 | CC[C@@H](C#N)NC(=O)c1ccc(-c2nc(Nc3cnn(C4CCN(C)CC4)c3)ncc2C)cc1 [Example 184, (S)—N-(1-Cyanopropyl)-4-(5-methyl-2-((1-(1-methylpiperidin-4-yl)-1H-pyrazol-4-yl)amino)pyrimidin-4-yl)benzamide]
0.0115 |  |  | CC[C@@H](C#N)NC(=O)c1ccc(-c2nc(Nc3cnn(C4CC4)c3)ncc2Cl)cc1 [Example 61, (S)-4-(5-chloro-2-((1-cyclopropyl-1H-pyrazol-4-yl)amino)pyrimidin-4-yl)-N-(1-cyanopropyl)benzamide]
 |  | 31.1 | N#CCNC(=O)c1ccc(-c2nc(Nc3cnn(C4CC4)c3)ncc2Cl)cc1 [Example 95, 4-(5-Chloro-2-((1-cyclopropyl-1H-pyrazol-4-yl)amino)pyrimidin-4-yl)-N-(cyanomethyl)benzamide]
2.04 |  |  | CNC(=O)c1ccc(-c2nc(Nc3cnn(C)c3)ncc2C)cc1 [Example 10, N-Methyl-4-(5-methyl-2-((1-methyl-1H-pyrazol-4-yl)amino)pyrimidin-4-yl)benzamide]
 | 18.2 | 18.9 | CC[C@@H](C#N)NC(=O)c1ccc(-c2nc(Nc3cnn(C4CCNCC4)c3)ncc2Cl)cc1 [Example 183, (S)-4-(5-chloro-2-((1-(piperidin-4-yl)-1H-pyrazol-4-yl)amino)pyrimidin-4-yl)-N-(1-cyanopropyl)benzamide]
